ChEMBL document CHEMBL5252619, “Sadopeptins A and B, Sulfoxide- and Piperidone-Containing Cyclic Heptapeptides with Proteasome Inhibitory Activity from a Streptomyces sp” (J Nat Prod, 2023)
Activity calls are given as the source filed them. The calls are words filed in the database; no cut-off is given here.

Experiments:
Proteasome [1] = assay: Inhibition of human proteasome trypsin-like activity using Boc-LRR-AMC as substrate measured for 30 mins in presence of MG132 by fluorescence based assay; format: subcellular; conditions: dose 10-50 µM
Proteasome [2] = assay: Inhibition of human proteasome chymotrypsin-like activity using suc-LLVY-AMC as fluorogenic substrate measured for 30 mins in presence of MG132 by fluorescence based assay; format: subcellular; conditions: dose 10-50 µM
A549 = assay: Cytotoxicity against human A549 cells assessed as reduction in cell viability up to 200 uM measured for 9 hrs by WST-8 assay; format: functional, cell-based
Proteasome [3] = assay: Inhibition of proteasome caspase-like activity in human A549 cells at 25 uM using ZLLE-AMC as fluorogenic substrate preincubated for 15 mins followed by substrate addition and measured after 6 mins by fluorometer analysis; format: subcellular
Proteasome [4] = assay: Inhibition of proteasome caspase-like activity in human A549 cells assessed as LC3 lipidation at 25 to 100 uM measured for 12 hrs in presence of MG132; conditions: dose 25-100 µM
Proteasome [5] = assay: Inhibition of proteasome caspase-like activity in human A549 cells assessed as cleaved PARP level at 25 to 100 uM measured for 12 hrs in presence of MG132; conditions: dose 25-100 µM
Proteasome [6] = assay: Inhibition of proteasome caspase-like activity in human A549 cells assessed as increase in caspase-3 level at 25 to 100 uM measured for 12 hrs in presence of MG132; format: subcellular; conditions: dose 25-100 µM

| inhibition (Proteasome [1]) | inhibition (Proteasome [2]) | inhibition (Proteasome [3]) | inhibition (Proteasome [4]) | inhibition (Proteasome [5]) | inhibition (Proteasome [6]) | Structure (SMILES) | Activity (A549) |
| --- | --- | --- | --- | --- | --- | --- | --- |
| Dose-Dependent Effect | Dose-Dependent Effect | Active | Active | Active | Active | CC(C)CC(=O)N[C@@H](CCCNC(N)=O)C(=O)N[C@@H]1C(=O)N[C@@H](CC[S+](C)[O-])C(=O)N[C@H]2CC[C@@H](O)N(C2=O)[C@@H](Cc2ccccc2)C(=O)N(C)[C@@H](Cc2ccc(O)cc2)C(=O)N[C@@H](C(C)C)C(=O)O[C@@H]1C (some centres undefined) | Active |
| Dose-Dependent Effect | Dose-Dependent Effect | Active | Active | Active | Active | CCCC(=O)N[C@@H](CCCNC(N)=O)C(=O)N[C@@H]1C(=O)N[C@@H](CC[S+](C)[O-])C(=O)N[C@H]2CC[C@@H](O)N(C2=O)[C@@H](Cc2ccccc2)C(=O)N(C)[C@@H](Cc2ccc(O)cc2)C(=O)N[C@@H](C(C)C)C(=O)O[C@@H]1C (some centres undefined) | Active |
